# Data from patent US20260355180A1, “COMPOSITIONS AND METHODS FOR SPLICEOSOME-TARGETED THERAPIES” (Institute for Cancer Research d/b/a The Research Institute …, priority 2022, published 2026).
# Experiments:
# [1] = tested on: H446 SCLC cells; assay: IFN response by rRT-qPCR, H446; format: cell-based, human; conditions: dose-dependent
# Source text: FIG. 3A-3D: SF3B1 inhibition induces a potent IFN response and increases expression of IFN-regulated proteins. […] Mean±SEM, two-tailed unpaired Student's t test *p<0.05, **p<0.01, ***p<0.001, ****p<0.0001.
# We also observed that SF3B1 inhibition triggers robust anti-tumor response and upregulates IFN-β, IFN-γ, and IFN-responsive genes by real-time reverse-transcription quantitative polymerase chain reaction (rRT-qPCR) in H446 and H82 cells (FIGS. 3A and 3B). […] These observations indicate that spliceosome inhibition is useful as a targeted therapy for SCLCs.
# [2] = tested on: H446 cells; assay: Immunofluorescence of A-RNA (J2) and Z-NA (Z22), H446; format: cell-based, human
# Source text: FIG. 4A-4C: SF3B1 perturbation increases dsRNA and Z-nucleic acid levels in treated cells. […] (FIG. 4B) Quantification of A-RNA and Z-Nucleic acids. (FIG. 4C) Western blot showing induction of cleaved-PARP, pH2AX, and ZBP1, and the reduction of RIPK1 protein levels. Plots of signal intensity are mean±SEM, two-tailed unpaired Student's t test **p<0.01, ****p<0.0001.
# Our observations led us to explore what caused the elevated IFN response. We used an immunofluorescence (IF) technique to determine if A-RNA was increased after PlaB treatment.
# [3] = tested on: MEF ΔZα cells; assay: A-RNA and Z-NA accumulation in MEF ΔZα; format: cell-based, mouse; conditions: SF3B1 inhibition
# [4] = tested on: MEF ΔZBP1 cells; assay: Survival of PlaB treated MEF ΔZBP1; format: cell-based, mouse
# Protocol: (§1) FIG. 16: Analysis of the effect of spliceosome inhibition on necroptosis in WT MEF cells. EV refers to cells treated with an empty vector.
# (§2) Since induction of Z-nAs can result in ZBP1-dependent necroptosis, we analyzed induction of necroptosis in necroptotic competent MEFs using spliceosome inhibition. […] We also determined that MEFs ΔZBP1, WT, and Flag-ZBP1 cells treated with PlaB began dying within 24hours after treatment. With MEF Flag-ZBP1 cells showing only 20% survival after 24 hours (FIG. 16).
# [5] = tested on: MEF Flag-ZBP1 cells; assay: Survival of PlaB treated MEF Flag-ZBP1; format: cell-based, mouse
# Protocol: as §1, §2
# [6] = tested on: pTBK1 protein; assay: Western blot of pTBK1; format: cell-based
# Source text: FIG. 7: Western Blot analysis showing pTBK1 protein depletion.
# Based on the publications and our findings, TNF sensing can at least partially rescue spliceosome perturbation mediated cell death.
# [7] = tested on: RPP631 cells in mice; assay: Combination therapy with PlaB and αPD-1 in mice, tumor size; format: in vivo; conditions: PlaB intra-tumorally and αPD-1 intra-peritoneally, days 14, 17, 20, 22; vs IgG or anti-PD1 only; 24 days
# Protocol: FIG. 17: Analysis of combination therapy in mouse model using PlaB and αPD-1.
# This combination therapy was tested in RPP631 cells in mice. At day 0, the mice were injected with 8×10^6 RPP631 cells. At days 14, 17, 20, and 22, the mice were injected with PlaB or a vehicle intra-tumorally and IgG or αPD-1 intra-peritoneally. The tumors were then measured over 24 days. (FIG. 17).
compound,measurement,setting,value
"CCC(O)C(C)C1OC1CC(C)C=CC=C(C)C1OC(=O)CC(O)CCC(C)(O)C(OC(C)=O)C=CC1C (centres unmarked) [PlaB, Pladienolide B]",IFN response,[1],induces potent IFN response
same,A-RNA level,"[2]; 6 hours, mouse J2 antibody, H446",robust induction
same,Z-NA level,"[2]; 6 hours, rabbit Z22 antibody, H446",significant increase
same,accumulation of A-RNA,"[2]; low dose, J2 antibody",induces accumulation
same,accumulation of Z-Nucleic acids,"[2]; low dose, Z22 antibody",induces accumulation
same,A-RNA and Z-NA accumulation,[3],accumulation
same,time after treatment at which cells began dying,[4],≤ 24 h
same,time after treatment at which cells began dying,[5]; MEF Flag-ZBP1,≤ 24 h
same,survival,"[5]; MEF Flag-ZBP1, after 24 hours",20%
same,pTBK1 protein,[6],dramatic reduction
same,tumor size,[7],significantly reduced tumor size
